Organism: Rattus norvegicus
Test: Open TG-GATES - Regimen: Daily Repeat
Assay type: toxicity, organism-based, Sprague-Dawley
Parameters: regimen Daily Repeat, gender Male, age 6 weeks
Settings: in vivo, po, 0 mg/kg, route gavage, dose level Control; for KIDNEY_L / KIDNEY_R / KIDNEY_TOTAL: tissue Kidney; for ALP / ALT / AST / BUN / CRE / DBIL / IP / K / LDH / Na / RALB / TBIL / TC / TG / TP / gamma-GTP / GLC: tissue Plasma

## Cc1cnc(NC(=O)C2=C(O)c3ccccc3S(=O)(=O)N2C)s1 [MELOXICAM]
72 h, time 3 day
  TERMINAL_BW: 245.1 g
  KIDNEY_L: 1 g
  KIDNEY_R: 1 g
  KIDNEY_TOTAL: 2 g
  ALP: 947 IU/L
  ALT: 42.2 IU/L
  AST: 70.4 IU/L
  BUN: 18 mg/dL
  CRE: 0.4 mg/dL
  DBIL: 0.1 mg/dL
  IP: 7.7 mg/dL
  K: 4.1 meq/L
  LDH: 199.2 IU/L
  Na: 141 meq/L
  RALB: 3.5 g/dL
  TBIL: 0.2 mg/dL
  TC: 70.8 mg/dL
  TG: 111.6 mg/dL
  TP: 5.6 g/dL
  gamma-GTP: 1 IU/L
72 h, tissue Blood, time 3 day
  Bas: 0.8%
  Eos: 1.2%
  Fbg: 223.6 mg/dL
  Lym: 78.4%
  MCH: 21.4 pg
  MCHC: 34.2%
  MCV: 62.4 fL
  Mono: 2.8%
  Neu: 17%
  PT: 11.9 s
  Plat: 120 x10_4/uL
  RBC: 645.4 x10_4/ul
  Ret: 5.5%
[…], time 7 day
  TERMINAL_BW: 281.9 g
  KIDNEY_L: 1.2 g
  KIDNEY_R: 1.1 g
  KIDNEY_TOTAL: 2.3 g
  ALP: 892.2 IU/L
  ALT: 33.8 IU/L
  AST: 68.2 IU/L
  BUN: 15.8 mg/dL
  CRE: 0.4 mg/dL
  DBIL: 0.082 mg/dL
  GLC: 214.8 mg/dL
  IP: 7.3 mg/dL
  K: 3.8 meq/L
  LDH: 190.6 IU/L
  Na: 142 meq/L
  RALB: 3.3 g/dL
  TBIL: 0.1 mg/dL
  TC: 67.2 mg/dL
  TG: 110.2 mg/dL
  TP: 5.7 g/dL
  gamma-GTP: 1.2 IU/L
[…], time 14 day
  TERMINAL_BW: 300.3 g
  KIDNEY_L: 1.2 g
  KIDNEY_R: 1.2 g
  KIDNEY_TOTAL: 2.4 g
  ALP: 880.6 IU/L
  ALT: 36.6 IU/L
  AST: 69.6 IU/L
  BUN: 16.4 mg/dL
  CRE: 0.4 mg/dL
  DBIL: 0.094 mg/dL
  IP: 6.9 mg/dL
  K: 4 meq/L
  LDH: 178.6 IU/L
  Na: 142 meq/L
  RALB: 3.6 g/dL
  TBIL: 0.2 mg/dL
  TC: 69 mg/dL
  TG: 113.2 mg/dL
  TP: 6.1 g/dL
  gamma-GTP: 1 IU/L
[…], time 28 day
  TERMINAL_BW: 396.9 g
  KIDNEY_L: 1.4 g
  KIDNEY_R: 1.3 g
  KIDNEY_TOTAL: 2.7 g
  ALP: 523.8 IU/L
  ALT: 32 IU/L
  AST: 65.8 IU/L
  BUN: 18.2 mg/dL
  CRE: 0.5 mg/dL
  DBIL: 0.1 mg/dL
  GLC: 239.5 mg/dL
  IP: 6.9 mg/dL
  K: 4.1 meq/L
[…], tissue Blood, time 7 day
  Bas: 0.8%
  Eos: 1%
  Fbg: 216.6 mg/dL
  Lym: 78.4%
  MCH: 21.4 pg
  MCHC: 34.9%
  MCV: 61.4 fL
  Mono: 2.4%
  Neu: 16.6%
  PT: 11.9 s
  Plat: 139.5 x10_4/uL
  RBC: 655.6 x10_4/ul
  Ret: 5.1%
[…], tissue Blood, time 14 day
  Bas: 1%
  Eos: 0.8%
  Fbg: 226.8 mg/dL
  Lym: 78.4%
  MCH: 20.1 pg
  MCHC: 34%
  MCV: 59.1 fL
  Mono: 2.8%
  Neu: 16.8%
  PT: 11.6 s
  Plat: 111.1 x10_4/uL
  RBC: 734.2 x10_4/ul
  Ret: 3.2%
[…], tissue Blood, time 28 day
  Bas: 1%
  Eos: 1%
  Fbg: 207.2 mg/dL
  Lym: 87%
  MCH: 19.3 pg
  MCHC: 34.4%
  MCV: 56.1 fL
  Mono: 1.5%
  Neu: 9%
  PT: 11.6 s
  RBC: 768.2 x10_4/ul
  Ret: 2.4%
  WBC: 144.5 x10_2/uL
